Each compound was assayed against T1, Recombinant human CBP containing the bromodomain (CBP-BD (1043-1159)) (Homo sapiens, UniProt Q92793) (assay: CBP Alphascreen binding assay). Settings: read-out: CREBBP (CBP) IC50.
T1 construct: Recombinant human CBP bromodomain (CBP-BD (1043-1159)); made in house; host or cells: E. coli BL21-CodonPlus (DE3), modified pET vector
T1 sequence (Q92793 1081-1197): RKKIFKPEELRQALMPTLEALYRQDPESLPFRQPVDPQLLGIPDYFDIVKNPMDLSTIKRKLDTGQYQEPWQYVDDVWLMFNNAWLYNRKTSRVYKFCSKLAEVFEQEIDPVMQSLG
Method: CBP Alphascreen Binding Assay
Binding of compounds of Formula (I) with CBP was assessed using Alphascreen™ binding assay. The inhibition of the interaction between the CBP bromodomain and its acetylated target protein was measured quantitatively using recombinant CBP, an acetylated Histone 3 peptide and AlphaScreen™ technology. In absence of inhibition of the CBP protein bound to AlphaScreen™ nickel chelate acceptor beads can interact with the acetylated Histone 3 peptide which was immobilized by the AlphaScreen™ Streptavidin coated beads. This interaction brings donor and acceptor beads in proximity. The close proximity allows the singlet oxygen produced by laser excitation of the donor beads to reach the acceptor beads and generate a luminescence signal. CBP inhibitors result in a decrease in the proximity signal through an inhibition of the CBP—acetylated peptide interaction.
Recombinant human CBP containing the bromodomain (CBP-BD (1043-1159)) was prepared and purified as described in protein expression and purification session. The peptide was human Histone H345-64K56Ac-Biotin (Anaspec CA, USA).
Protocol for CBP assay: All components are prepared in buffer composed of 50 mM HEPES pH 7.5, 50 mM NaCl, 0.01% BSA, 0.01% Triton X-100, 2 mM DTT. Test compounds and DMSO vehicle are diluted 1:50 in buffer and a 4 μL volume was transferred to an Alphaplate. 5.5 μL of CBP protein and 5.5 μL of peptide are added to wells containing 4 μL of various concentrations of test compounds of Formula (I) or DMSO vehicle in an Alphaplate (PerkinElmer GA, USA) and incubated for 1 hour at room temperature. 5 μL donor and acceptor bead mixture was then added with final concentrations of 7.5 μg/ml. 60 minutes after bead addition, Alpha signal was read on the Envision spectrometer (λEx 680 nm, λEm 520-620 nm). Final concentrations of bromodomain proteins and peptide are as shown below.
All data were normalized to the mean of 16 high and 16 low control wells on each plate. A four parameter curve fit of the following formula was then applied: Y=A+((B−A)/(1+((C/x)^D))) Where ‘A’ is the minimum, ‘B’ is the maximum, ‘C’ is the IC50 and ‘D’ is the Hill slope. Protein Expression and Purification
Recombinant human CBP bromodomain (CBP-BD (1043-1159)) was expressed in E. coli cells (in a modified pET vector) with an N-terminal six-His tag and purified using a combination of both IMAC (Ni-affinity) and size exclusion chromatography steps.
Recombinant CBP protein was expressed using the E. coli strain BL21-CodonPlus (DE3) (Agilent Technologies CA, USA). Cells were grown in Terrific Broth (TB) media to an OD600 of 0.92 at 37° C. at which temperature was reduced to 20° C., protein was induced with 1.0 mM isopropyl-β-D-thiogalactopyranoside (“IPTG”) for 20 hours and harvested by centrifugation at 8500×g for 20 minutes. Cells were re-suspended in 0.1M K2PO4 pH 8.0, 250 mM NaCl, 10% Glycerol, 0.75% NP-40, 25 mM Imidazole, with 0.2 mg/ml Lysozyme, 0.2 mM phenylmethanesulfonyl fluoride (“PMSF”), […] (“BME”), 25 μg/ml DNase I, incubated on ice for 30 minutes and lysed with a cell disruptor (MicroFluidics MA, USA). The lysate was clarified by centrifugation at 20,000×g for 1 hour. The protein was captured with Ni-NTA resin (Life Technologies, USA). Contaminating proteins were washed off with 40 mM HEPES pH 7.5, 500 mM NaCl, 5% Glycerol, 5 mM Imidazole, and 5 mM BME. Following 3× wash steps, protein was eluted using 400 mM Imidazole in 40 mM HEPES pH 7.5, 400 mM NaCl, and 5 mM BME. The protein was further purified using a size exclusion column (26/600 Superdex 200, GE Biosciences NJ, USA) in 40 mM HEPES pH 7.5, 250 mM NaCl, 5 mM BME. The protein was aliquoted and flash-frozen in liquid Nitrogen.
Compound `Cc1noc(C)c1-c1cnc2c(CC3CCC3)cn(-c3ccc(C#N)c(C(=O)O)c3)c2c1` [P-0104, 2-cyano-5-(3-(cyclobutylmethyl)-6-(3,5-dimethylisoxazol-4-yl)-1H-pyrrolo[3,2-b]pyridin-1-yl)benzoic acid] has an IC50 of 0.1 to 1000 nM.
Work on `Cc1noc(C)c1-c1cnc2c(CC3CCC3)cn(-c3ccc(C(=O)O)c(C#N)c3)c2c1` [P-0105, 2-cyano-4-(3-(cyclobutylmethyl)-6-(3,5-dimethylisoxazol-4-yl)-1H-pyrrolo[3,2-b]pyridin-1-yl)benzoic acid] yielded an IC50 of 0.1 to 1000 nM.
`Cc1noc(C)c1-c1cnc2c(c1)c(-c1cncc(C(=O)O)n1)cn2[C@@H](C)c1ccccn1` [P-0106, (S)-6-(5-(3,5-dimethylisoxazol-4-yl)-1-(1-(pyridin-2-yl)ethyl)-1H-pyrrolo[2,3-b]pyridin-3-yl)pyrazine-2-carboxylic acid] showed an IC50 of 1000 to 8000 nM.
`Cc1noc(C)c1-c1cnc2c(c1)c(-c1nccc(C(=O)O)n1)cn2[C@@H](C)c1ccccn1` [P-0107, (S)-2-(5-(3,5-dimethylisoxazol-4-yl)-1-(1-(pyridin-2-yl)ethyl)-1H-pyrrolo[2,3-b]pyridin-3-yl)pyrimidine-4-carboxylic acid] gave an IC50 of 1000 to 8000 nM.
In the case of `CCOc1cc(C(=O)O)cc(F)c1-n1cc(CC2CCC2)c2ncc(-c3c(C)noc3C)cc21` [P-0108, 4-(3-(cyclobutylmethyl)-6-(3,5-dimethylisoxazol-4-yl)-1H-pyrrolo[3,2-b]pyridin-1-yl)-3-ethoxy-5-fluorobenzoic acid], the IC50 is reported as 0.1 to 1000 nM.
Compound `CCOc1cc(C(=O)O)cc(OCC)c1-n1cc(CC2CCC2)c2ncc(-c3c(C)noc3C)cc21` [P-0109, 4-(3-(cyclobutylmethyl)-6-(3,5-dimethylisoxazol-4-yl)-1H-pyrrolo[3,2-b]pyridin-1-yl)-3,5-diethoxybenzoic acid] has an IC50 of 0.1 to 1000 nM.
Compound `Cc1noc(C)c1-c1cnc2c(CC3CCC3)cn(-c3ccc(C(=O)O)c4ccoc34)c2c1` [P-0110, 7-(3-(cyclobutylmethyl)-6-(3,5-dimethylisoxazol-4-yl)-1H-pyrrolo[3,2-b]pyridin-1-yl)benzofuran-4-carboxylic acid] has an IC50 of 0.1 to 1000 nM.
`Cc1noc(C)c1-c1cnc2c(CC3CCC3)cn(-c3c(OC(C)C)cc(C(=O)O)cc3OC(C)C)c2c1` [P-0111, 4-(3-(cyclobutylmethyl)-6-(3,5-dimethylisoxazol-4-yl)-1H-pyrrolo[3,2-b]pyridin-1-yl)-3,5-diisopropoxybenzoic acid] gave an IC50 of 0.1 to 1000 nM.
`Cc1noc(C)c1-c1cnc2c(c1)c(-c1ccc(C(=O)O)cc1OC(C)C)cn2[C@@H](C)c1ccccn1` [P-0112, (S)-4-(5-(3,5-dimethylisoxazol-4-yl)-1-(1-(pyridin-2-yl)ethyl)-1H-pyrrolo[2,3-b]pyridin-3-yl)-3-isopropoxybenzoic acid] showed an IC50 of 0.1 to 1000 nM.
Compound `CCCOc1cc(C(=O)O)ccc1-c1cn([C@@H](C)c2ccccn2)c2ncc(-c3c(C)noc3C)cc12` [P-0113, (S)-4-(5-(3,5-dimethylisoxazol-4-yl)-1-(1-(pyridin-2-yl)ethyl)-1H-pyrrolo[2,3-b]pyridin-3-yl)-3-propoxybenzoic acid] has an IC50 of 0.1 to 1000 nM.
Work on `CCOc1cc(C(=O)O)ccc1-c1cn([C@@H](C)c2ccccn2)c2ncc(-c3c(C)noc3C)cc12` [P-0114, (S)-4-(5-(3,5-dimethylisoxazol-4-yl)-1-(1-(pyridin-2-yl)ethyl)-1H-pyrrolo[2,3-b]pyridin-3-yl)-3-ethoxybenzoic acid] yielded an IC50 of 0.1 to 1000 nM.
Work on `Cc1noc(C)c1-c1cnc2c(c1)c(-c1ccc(C(=O)O)cc1OCC(F)(F)F)cn2[C@@H](C)c1ccccn1` [P-0115, (S)-4-(5-(3,5-dimethylisoxazol-4-yl)-1-(1-(pyridin-2-yl)ethyl)-1H-pyrrolo[2,3-b]pyridin-3-yl)-3-(2,2,2-trifluoroethoxy)benzoic acid] yielded an IC50 of 0.1 to 1000 nM.
Work on `Cc1noc(C)c1-c1cnc2c(c1)c(-c1ccc(C(=O)O)cc1C(F)(F)F)cn2[C@@H](C)c1ccccn1` [P-0116, (S)-4-(5-(3,5-dimethylisoxazol-4-yl)-1-(1-(pyridin-2-yl)ethyl)-1H-pyrrolo[2,3-b]pyridin-3-yl)-3-(trifluoromethyl)benzoic acid] yielded an IC50 of 0.1 to 1000 nM.
Compound `CCCOc1cc(C(=O)O)cc(OCCC)c1-c1cn([C@@H](C)c2ccccn2)c2ncc(-c3c(C)noc3C)cc12` [P-0117, (S)-4-(5-(3,5-dimethylisoxazol-4-yl)-1-(1-(pyridin-2-yl)ethyl)-1H-pyrrolo[2,3-b]pyridin-3-yl)-3,5-dipropoxybenzoic acid] has an IC50 of 0.1 to 1000 nM.
With `Cc1noc(C)c1-c1cnc2c(c1)c(-c1c(OC(C)C)cc(C(=O)O)cc1OC(C)C)cn2[C@@H](C)c1ccccn1` [P-0118, (S)-4-(5-(3,5-dimethylisoxazol-4-yl)-1-(1-(pyridin-2-yl)ethyl)-1H-pyrrolo[2,3-b]pyridin-3-yl)-3,5-diisopropoxybenzoic acid] the IC50 was 0.1 to 1000 nM.
`COc1cc(C(=O)O)cc(OC)c1-c1cn(C(C)c2ccccc2)c2cc(-c3c(C)noc3C)cnc12` (stereo not drawn) [P-0119, 4-(6-(3,5-dimethylisoxazol-4-yl)-1-(1-phenylethyl)-1H-pyrrolo[3,2-b]pyridin-3-yl)-3,5-dimethoxybenzoic acid] was tested, and the IC50 was 0.1 to 1000 nM.
Work on `Cc1noc(C)c1-c1cnc2c(-c3ccccc3C(=O)O)cn(C(C)c3ccccc3)c2c1` (stereo not drawn) [P-0120, 2-(6-(3,5-dimethylisoxazol-4-yl)-1-(1-phenylethyl)-1H-pyrrolo[3,2-b]pyridin-3-yl)benzoic acid] yielded an IC50 of 1000 to 8000 nM.
`Cc1noc(C)c1-c1cnc2c(C(=O)C3CCC3)cn(-c3c(Cl)cc(C(=O)O)cc3Cl)c2c1` [P-0121, 3,5-dichloro-4-(3-(cyclobutanecarbonyl)-6-(3,5-dimethylisoxazol-4-yl)-1H-pyrrolo[3,2-b]pyridin-1-yl)benzoic acid] was tested, and the IC50 was 0.1 to 1000 nM.
With `Cc1noc(C)c1-c1cnc2c(c1)c(-c1cccc(C(=O)O)n1)cn2C(C)c1ccccn1` (stereo not drawn) [P-0122, 6-(5-(3,5-dimethylisoxazol-4-yl)-1-(1-(pyridin-2-yl)ethyl)-1H-pyrrolo[2,3-b]pyridin-3-yl)picolinic acid] the IC50 was 1000 to 8000 nM.
Work on `Cc1noc(C)c1-c1cnc2c(c1)c(-c1ccc(C(=O)O)cn1)cn2C(C)c1ccccn1` (stereo not drawn) [P-0123, 6-(5-(3,5-dimethylisoxazol-4-yl)-1-(1-(pyridin-2-yl)ethyl)-1H-pyrrolo[2,3-b]pyridin-3-yl)nicotinic acid] yielded an IC50 of 0.1 to 1000 nM.
`Cc1noc(C)c1-c1cnc2c(c1)c(-c1cc(C(=O)O)ccn1)cn2C(C)c1ccccn1` (stereo not drawn) [P-0124, 2-(5-(3,5-dimethylisoxazol-4-yl)-1-(1-(pyridin-2-yl)ethyl)-1H-pyrrolo[2,3-b]pyridin-3-yl)isonicotinic acid] showed an IC50 of 0.1 to 1000 nM.
Work on `Cc1noc(C)c1-c1cnc2c(c1)c(-c1ccc(F)c(C(=O)O)c1F)cn2[C@@H](C)c1ccccn1` [P-0125, (S)-3-(5-(3,5-dimethylisoxazol-4-yl)-1-(1-(pyridin-2-yl)ethyl)-1H-pyrrolo[2,3-b]pyridin-3-yl)-2,6-difluorobenzoic acid] yielded an IC50 of 0.1 to 1000 nM.
`Cc1noc(C)c1-c1cnc2c(c1)c(-c1ccnc(C(=O)O)n1)cn2C(C)c1ccccn1` (stereo not drawn) [P-0126, 4-(5-(3,5-dimethylisoxazol-4-yl)-1-(1-(pyridin-2-yl)ethyl)-1H-pyrrolo[2,3-b]pyridin-3-yl)pyrimidine-2-carboxylic acid] was tested, and the IC50 was 0.1 to 1000 nM.
Compound `CCCOc1cc(C(=O)O)cc(OCCC)c1-n1cc(CC2CCC2)c2ncc(-c3c(C)noc3C)cc21` [P-0127, 4-(3-(cyclobutylmethyl)-6-(3,5-dimethylisoxazol-4-yl)-1H-pyrrolo[3,2-b]pyridin-1-yl)-3,5-dipropoxybenzoic acid] has an IC50 of 0.1 to 1000 nM.
